Here are results for 2 molecules from US11014896B2, “TRPA1 and TRPV4 inhibitors and methods of using the same for organ-specific inflammation and itch” (Duke University, priority 2014, dated 2021).

One assay concerns the target T1, human TRPV3 (Homo sapiens, UniProt Q8NET8).
T1 construct: expressed in transfected cells; host or cells: N2a cells
T1 sequence (Q8NET8 1-790): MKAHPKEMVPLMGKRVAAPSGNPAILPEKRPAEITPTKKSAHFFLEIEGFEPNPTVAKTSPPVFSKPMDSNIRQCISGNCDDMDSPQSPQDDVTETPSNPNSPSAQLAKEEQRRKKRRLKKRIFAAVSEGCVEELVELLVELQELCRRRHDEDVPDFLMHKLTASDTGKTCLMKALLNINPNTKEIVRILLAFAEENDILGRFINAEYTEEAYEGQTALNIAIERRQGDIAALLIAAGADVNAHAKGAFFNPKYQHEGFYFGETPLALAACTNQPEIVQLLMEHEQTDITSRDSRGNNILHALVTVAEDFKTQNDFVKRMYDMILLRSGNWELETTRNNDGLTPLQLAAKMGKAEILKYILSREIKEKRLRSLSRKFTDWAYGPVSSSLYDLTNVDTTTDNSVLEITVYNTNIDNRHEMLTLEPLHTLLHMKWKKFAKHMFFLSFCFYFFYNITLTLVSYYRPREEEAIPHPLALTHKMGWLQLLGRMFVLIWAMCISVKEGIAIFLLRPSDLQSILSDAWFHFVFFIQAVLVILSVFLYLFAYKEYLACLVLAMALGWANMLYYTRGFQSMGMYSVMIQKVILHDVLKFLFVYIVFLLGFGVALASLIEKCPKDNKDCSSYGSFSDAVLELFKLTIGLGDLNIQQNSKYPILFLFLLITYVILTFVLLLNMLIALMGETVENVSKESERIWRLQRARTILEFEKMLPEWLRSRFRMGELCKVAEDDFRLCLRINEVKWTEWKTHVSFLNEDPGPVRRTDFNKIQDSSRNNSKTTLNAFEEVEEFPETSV
Nature of the assay: Ca2+ signal in N2a cells transfected with human TRPV3. Type of assay: cell-based. The following applies: stimulation with camphor. How it is done: Compounds were tested for their effect on TRPV1, TRPV2, and TRPV3. Methods were similar to those described in Example 15. Briefly, N2a cells were transfected with human TRPV1, TRPV2, or TRPV3. eGFP-transfection was used as control. For specific stimulation of TRPV1, 5 μM capsaicin was used. For stimulation of TRPV2, hypotonicity (260 mosmol/L) was used, based on previous reports of TRPV2 being osmotically responsive. N2a cells were not responsive to hypotonicity, and neither were control-transfected cells. For TRPV3-expressing cells, camphor (20% of a commercially available stock solution) was used. […] Stimulation and control protocols were applied as for TRPA1-expressing N2a cells as detailed above in Example 15.

The next assay relates to CXCL5. Nature of the assay: Keratinocyte CXCL5 expression in UVB-exposed footpad after topical treatment. Type of assay: in vivo, mouse. The following applies: 5 mM GSK205 topical. How it is done: (§1) GSK205 topical treatment: A viscous solution of 68% EtOH/5% glycerol plus 1 mM or 5 mM GSK205 (none for control) was applied to hindpaws by rubbing in 20 μL, applied at time-points 1 hour and again 10 min before UV exposure.
Routine procedures were followed as described previously (Chen et al., 2009). Mice were perfused transcardially with 30 mL PBS, followed by 30 mL 4% paraformaldehyde. Tissues, including the L5 DRGs (bilateral), and footpad preparations, were dissected and post-fixed in 4% paraformaldehyde. Tissue blocks were further cryoprotected in 30% sucrose in PBS for 24-48 hours. For mouse TRPV4, keratin-specific antibodies, phospho-ERK, IL-6, IL-1β, CXCL5 and caspase-1, tissue was prepared as frozen blocks and subsequently sectioned on a cryostat. For CD68, CD15 (neutrophil elastase) and CD3, mouse skin was prepared by 2% PFA perfusion. […]

Assay [1] is described as follows: UVB-induced nocifensive behavior after topical GSK205 (Hargreaves' test, von Frey hair). Type of assay: in vivo, mouse. How it is done:
Behavioral tests were performed to evaluate the decrease in withdrawal thresholds in response to mechanical von Frey hair or thermal stimuli applied to hind paws. […]. These withdrawal thresholds were ascertained before and after UV exposure. Mice were exposed using a Bio Rad Gel Doc 2000 UV transilluminator (302 nm) for 5 minutes with an exposure of 600 mJ/cm^2, 3-5 days after the last application of tamoxifen/oil.
as §1
Behavioral tests were performed to evaluate the decrease in withdrawal thresholds in response to mechanical or thermal stimuli applied to hind paws. These withdrawal thresholds were ascertained before and after UVB exposure. Mice were confined by plexi-glass enclosures on top of 25×26 cm Bio Rad Gel Doc 2000 UV transilluminator (302 nm), and otherwise allowed to openly explore this environment. UV-exposure lasted for 5 minutes with an exposure of 600 mJ/cm^2.
Hindpaw mechanical withdrawal thresholds were determined by the automated von Frey hair method, using a 0.5 mm diameter stainless steel filament, part of an automated plantar touch stimulator (Ugo Basile, Modena, Italy). Relevant detail included pre-test acclimatization in a quiet room for 30 min, conducting the test at the same time of day and blinded observers. The stimulus was delivered to the hindpaw, automatically discontinued upon withdrawal, and its intensity recorded automatically. 6-8 trials per animal were conducted, with equal exposure of both hindpaws, leading to an average withdrawal threshold. Results are reported as […], which was calculated by subtracting post-treatment from pre-treatment measurements, expressed as % or relative to 1.0.
Hindpaw thermal (hot) withdrawal thresholds were determined by the well-established Hargreaves' method, using an infra-red thermal stimulation device that delivers the stimulus from underneath the hindpaw combined with automatic shut-off upon withdrawal (Ugo Basile). Stimulation and measurements were conducted as described for von Frey hair testing. A cutoff of 20 sec was set to prevent tissue damage.

A further assay relates to ET1. Nature of the assay: ET1 secretion by non-stimulated 1° MK (ELISA). Type of assay: cell-based, mouse. A general note: ELISA stands for enzyme-linked immunosorbent assay.

“Also recorded” adds a separate entry of the source.

As to `CN(CCc1ccc(Nc2nc(-c3ccccc3)cs2)cc1)Cc1ccccc1` [Compound 16-8], at human TRPV3, the “Ca2+ transience on TRPV3 stimulation” value was “not affected”.
With `CN(CCc1ccc(Nc2nc(-c3cccnc3)cs2)cc1)Cc1ccccc1` [GSK205], the “keratinocyte expression of CXCL5 in UVB-exposed footpad” value in the assay on CXCL5 is “Comparably significant blocks; also recorded: attenuates keratinocyte expression of CXCL5”. The “delay in thermal sensitivity after UVB” value in assay [1] (1 mM GSK205 topical, WT mice) was approximately 24 h. Besides, the “thermally-evoked nocifensive behavior (Hargreaves' test) after UVB” value in assay [1] (5 mM GSK205 topical, 60′ and 10′ pre-exposure, WT mice) is recorded as “sustained attenuation of thermally-evoked nocifensive behavior; also recorded: significant attenuation of thermal allodynia”. Also, in assay [1] (5 mM GSK205 topical, Trpv4−/− mice), the “nocifensive behavior after UVB in Trpv4−/− mice vs. vehicle (off-target effects)” value is “did not show any inter-group differences; also recorded: lack of off-target effects”. The “sensitivity to von Frey hair mechanical stimulation after UVB” value in assay [1] (topical GSK205, WT mice) is listed as “significantly reduced sensitivity”. Moreover, the “ET1 secretion into supernatant (relative ET1 concentration)” value with ET1 is recorded as “significant down-regulation”.
